“And” between values parts separate entries of the source, which are not always exact repeats. Equal entries are not always repeated.
Experiment: Plasma PK: gamma-counted plasma radioactivity, bi-exponential fit
Format: in vivo, human
Conditions: plasma
Method: Additionally, for PK assessment, whole blood samples were collected at six timepoints (Pre-Infusion, 1 h, 4 h, 24 h, 48 h, and 168 h) and processed to extract plasma. All plasma samples were gamma counted locally for analysis of pharmacokinetics.
PK plasma samples were collected at pre-Infusion, 1 h, 4 h, 24 h, 48 h, and 168 h, and counted for radioactivity. Blood samples were first centrifuged to extract plasma, and then the radioactivity in plasma was counted in a gamma counter.
Whole blood samples were collected as detailed in the protocol Schedule of Events i.e. pre-injection, and then at 1 h, 4 h, 24 h, 48 h, and 168 h post-injection. The samples were first centrifuged to separate plasma, and the radioactivity in the plasma was then measured using a gamma counter. Plasma concentrations were subsequently fitted with a bi-exponential function to derive outcome parameters such as the half-life and clearance rate of the radiopharmaceutical in the plasma.

[1] = Cycle 3, individual patient values

Compound: O=C([O-])CC[C@H](NC(=O)N[C@@H](CCCCNC(=O)CCCCCCC(=O)NCCCC[C@@H](NC(=O)[C@@H](Cc1ccccc1)NC(=O)[C@@H](Cc1ccc(O)c(I)c1)NC(=O)CC[C@H](C(=O)[O-])N1CCN(CC(=O)[O-])CCN(CC(=O)[O-])CCN(CC(=O)[O-])CC1)C(=O)[O-])C(=O)[O-])C(=O)[O-].[177Lu+3].[H+].[H+].[H+].[H+].[H+] [^177Lu-PSMA I&T, (3S,7S,26R,29R,32R,37R)-29-benzyl-32-(4-hydroxy-3-iodobenzyl)-5,13,20,28,31,34-hexaoxo-37-(4,7,10-tris(carboxymethyl)-1,4,7,10-tetraazacyclododecan-1-yl)-4,6,12,21,27,30,33-heptaazaheptatriacontane-1,3,7,26,37-pentacarboxylic acid; lutetium-177 (III)]
- AUC Total (Cycle 1, min): 3.07 fIA/L × min
- Clearance Rate (Cycle 1, min): 2.89 L/h
- Peak Concentration Value (Cycle 1, min): 0.01 fIA/L
- Time of Peak Concentration (Cycle 1, min): 33.00 min
- Vc (Cycle 1, min): 9.92 L
- Vd (Cycle 1, min): 54.60 L
- AUC Total (Cycle 3, Mean (n=15)): 25.58 fIA/L × min
- Peak Concentration Value (Cycle 3, Mean (n=15)): 0.05 fIA/L
- Rate Clearance (Cycle 3, Mean (n=15)): 9.65 L/h
- Vc (Cycle 3, Mean (n=15)): 16.40 L
- Vd (Cycle 3, Mean (n=15)): 141.49 L
- AUC Total [1]: 26.16 fIA/L x min and 29.32 fIA/L x min and 20.20 fIA/L x min (2×) and 36.74 fIA/L x min and 16.57 fIA/L x min and 19.01 fIA/L x min and 17.88 fIA/L x min and 23.21 fIA/L x min and 13.86 fIA/L x min and 24.55 fIA/L x min and 22.70 fIA/L x min and 39.62 fIA/L x min and 28.52 fIA/L x min and 36.09 fIA/L x min and 29.33 fIA/L x min
- Clearance Rate [1]: 7.68 L/h and 6.78 L/h and 7.81 L/h and 4.95 L/h and 14.60 L/h and 18.27 L/h and 9.22 L/h and 8.52 L/h and 25.73 L/h and 11.43 L/h and 13.59 L/h and 3.34 L/h and 5.74 L/h and 3.01 L/h and 4.07 L/h
- Distribution Half-Life [1]: 2.07 h and 1.69 h and 1.88 h and 2.30 h and 2.06 h and 1.64 h and 2.55 h and 2.28 h and 1.85 h and 2.11 h and 3.17 h and 2.61 h and 2.22 h
- Elimination Half-Life [1]: 12.51 h and 11.70 h and 10.92 h and 9.33 h and 9.92 h and 8.16 h and 9.10 h and 9.11 h and 10.32 h and 9.75 h and 9.63 h and 10.67 h and 18.37 h and 14.16 h
- Peak Concentration Value [1]: 0.04 fIA/L (7×) and 0.05 fIA/L (4×) and 0.06 fIA/L (2×) and 0.07 fIA/L and 0.03 fIA/L (2×)
- Time of Peak Concentration [1]: 60.00 min (5×) and 68.00 min and 61.00 min (3×) and 66.00 min (2×) and 55.00 min (2×) and 65.00 min and 59.00 min (2×)
- Vc [1]: 11.98 L and 11.38 L and 21.49 L (2×) and 10.66 L and 16.42 L and 16.53 L and 24.53 L and 17.80 L and 20.07 L and 13.50 L and 14.30 L and 15.13 L and 18.12 L and 16.40 L and 17.66 L
- Vd [1]: 129.70 L and 106.80 L and 105.05 L and 70.92 L and 171.89 L and 239.78 L and 121.21 L and 126.73 L and 361.81 L and 158.71 L and 191.15 L and 51.46 L and 152.16 L and 61.59 L and 73.36 L
- AUC Total (Cycle 3, individual patients): 29.32 fIA/L × min and 20.20 fIA/L × min (2×) and 36.74 fIA/L × min and 16.57 fIA/L × min and 19.01 fIA/L × min and 17.88 fIA/L × min and 23.21 fIA/L × min and 13.86 fIA/L × min and 24.55 fIA/L × min and 22.70 fIA/L × min and 39.62 fIA/L × min and 28.52 fIA/L × min and 36.09 fIA/L × min and 29.33 fIA/L × min and 26.16 fIA/L × min
- Peak Concentration Value (Cycle 3, individual patients): 0.06 fIA/L (2×) and 0.04 fIA/L (7×) and 0.07 fIA/L and 0.03 fIA/L (2×) and 0.05 fIA/L (4×)
- Vc (Cycle 3, individual patients): 11.38 L and 21.49 L (2×) and 10.66 L and 16.42 L and 16.53 L and 24.53 L and 17.80 L and 20.07 L and 13.50 L and 14.30 L and 15.13 L and 18.12 L and 16.40 L and 17.66 L and 11.98 L
- Vd (Cycle 3, individual patients): 106.80 L and 105.05 L and 70.92 L and 171.89 L and 239.78 L and 121.21 L and 126.73 L and 361.81 L and 158.71 L and 191.15 L and 51.46 L and 152.16 L and 61.59 L and 73.36 L and 129.70 L
- AUC Total (Cycle 3, max): 39.62 fIA/L × min
- Peak Concentration Value (Cycle 3, max): 0.07 fIA/L
- Rate Clearance (Cycle 3, max): 25.73 L/h
- Vc (Cycle 3, max): 24.53 L
- Vd (Cycle 3, max): 361.81 L
- AUC Total (Cycle 3, median): 24.55 fIA/L × min
- Peak Concentration Value (Cycle 3, median): 0.04 fIA/L
- Rate Clearance (Cycle 3, median): 7.81 L/h
- Vc (Cycle 3, median): 16.42 L
- Vd (Cycle 3, median): 126.73 L
- AUC Total (Cycle 3, min): 13.86 fIA/L × min
- Peak Concentration Value (Cycle 3, min): 0.03 fIA/L
- Rate Clearance (Cycle 3, min): 3.01 L/h
- Vc (Cycle 3, min): 10.66 L
- Vd (Cycle 3, min): 51.46 L
- AUC Total, Mean (Cycle 3, n = 15): 25.58 fIA/L x min
- AUC Total, max (Cycle 3, n = 15): 39.62 fIA/L x min
- AUC Total, median (Cycle 3, n = 15): 24.55 fIA/L x min
- AUC Total, min (Cycle 3, n = 15): 13.86 fIA/L x min
- Clearance Rate, Mean (Cycle 3, n = 15): 9.65 L/h
- Clearance Rate, max (Cycle 3, n = 15): 25.73 L/h
- Clearance Rate, median (Cycle 3, n = 15): 7.81 L/h
- Clearance Rate, min (Cycle 3, n = 15): 3.01 L/h
- Distribution Half-Life, Mean (Cycle 3, n = 15): 2.17 h
- Distribution Half-Life, max (Cycle 3, n = 15): 3.17 h
- Distribution Half-Life, median (Cycle 3, n = 15): 2.07 h
- Distribution Half-Life, min (Cycle 3, n = 15): 1.64 h
- Elimination Half-Life, Mean (Cycle 3, n = 15): 10.89 h
- Elimination Half-Life, max (Cycle 3, n = 15): 18.37 h
- Elimination Half-Life, median (Cycle 3, n = 15): 9.92 h
- Elimination Half-Life, min (Cycle 3, n = 15): 8.16 h
- Peak Concentration Value, Mean (Cycle 3, n = 15): 0.05 fIA/L
- Peak Concentration Value, max (Cycle 3, n = 15): 0.07 fIA/L
- Peak Concentration Value, median (Cycle 3, n = 15): 0.04 fIA/L
- Peak Concentration Value, min (Cycle 3, n = 15): 0.03 fIA/L
- Time of Peak Concentration (Cycle 3, n = 15): 55.00 min
- Time of Peak Concentration, Mean (Cycle 3, n = 15): 60.67 min
- Time of Peak Concentration, max (Cycle 3, n = 15): 68.00 min
- Time of Peak Concentration, median (Cycle 3, n = 15): 60.00 min
- Vc, Mean (Cycle 3, n = 15): 16.40 L
- Vc, max (Cycle 3, n = 15): 24.53 L
- Vc, median (Cycle 3, n = 15): 16.42 L
- Vc, min (Cycle 3, n = 15): 10.66 L
- Vd, Mean (Cycle 3, n = 15): 141.49 L
- Vd, max (Cycle 3, n = 15): 361.81 L
- Vd, median (Cycle 3, n = 15): 126.73 L
- Vd, min (Cycle 3, n = 15): 51.46 L

From patent US20250032651A1, “[177LU] LUTETIUM-PSMA I&T COMPOSITION AND DOSIMETRY, KIT, METHOD OF MAKING, AND METHOD OF USING THEREOF” (Curium US LLC, priority 2022, published 2025)
